{"source": "paper PMC7305224", "about": "“Mutually stabilizing interactions between proto-peptides and RNA” (Nature Communications, 2020)", "key": {"[1]": {"tested_on": "5′-Cy5-U20 RNA", "test": "Gel mobility (band) shift assay", "format": "binding", "conditions": "66.6–530 µM FAM-labeled sequence, 5′-Cy5-U20 RNA 26.6 µM, MES-TEA buffer pH 6, 12% native polyacrylamide gel", "method": "The gel was cropped at the edges for clarity. […] Spectra were recorded in 100 mM MES-TEA buffer (pH 6). d Plot of the change in CD signal at 266 nm as a function of increasing concentrations of depsipeptide 14. Red and blue colors of the filled circles correspond to curves of the same color in panel (c). […] […] An addition of 1.25 µL of glycerol brought the sample volume to a total of 3.75 µL. Samples were loaded onto a 12% native polyacrylamide gel, run at 100 V for 90 min, and imaged using Azure Biosystems c430."}, "[2]": {"tested_on": "RNA duplex 1 (5′-rCrGrCrUrArArArUrCrG-3′ & 5′-rCrGrArUrUrUrArGrCrG-3′)", "test": "RNA thermal denaturation (Tm) by UV hyperchromicity at 260 nm with synthetic peptides/depsipeptides, RNA duplex 1", "format": "binding"}, "[3]": {"tested_on": "10-mer RNA duplex (5′-6-FAM-rCrGrCrUrArArArUrCrG-3′ & 5′-rCrGrArUrUrUrArGrCrG-3IABkFQ-3′)", "test": "RNA duplex Tm by rtPCR fluorescence with dry-down reaction mixtures", "format": "binding", "conditions": "not subjected to the dry-down reaction (non-dried)", "quoted_text": "Accordingly, we determined the effect of cationic proto-peptides on RNA duplex stability by monitoring changes in the melting temperature (Tm) of a short 10mer RNA duplex in the presence or absence of individual proto-peptide samples (Fig. 2). The complementary RNA strands were 5′- or 3′-labeled with either a fluorophore or a quencher so that the degree of RNA hybridization could be monitored by fluorescence in rtPCR instrumentation (Supplementary Fig. 9). […] For the Tm measurements, the proto-peptide samples were diluted to a final concentration of 25 mM (based on the amount of cationic amino acid used at the start of the dry-down) and mixed with the RNA duplex (2.5 μM each strand).\nDry-down reaction products were dissolved in deionized water to give a 100 mM stock solution based on the amount of monomers used at the start of the dry-down. […]\nPrior to Tm analyses, RNA samples were annealed in the appropriate buffer by heating to 75 °C and slowly cooling to room temperature. […] For analyses involving dry-down reaction mixtures, the Tm was determined by monitoring fluorescence increase upon melting of a fluorophore/quencher-labeled RNA duplex (5′-rCrGrArUrUrUrArGrCrG-/3IABkFQ/-3′ and 3′-rGrCrUrArArArUrCrGrC-FAM-5′) using a BioRad CFX Connect rtPCR instrument with a heating ramp of 1 °C/min and 20 μL final sample volumes."}, "[4]": {"tested_on": "H26a RNA (5′-rArUrGrArGrUrArArCrCrGrUrArArGrGrUrGrArArArUrU-3′)", "test": "RNA thermal denaturation (Tm) by UV hyperchromicity, H26a RNA hairpin", "format": "binding", "method": "(§1) Prior to Tm analyses, RNA samples were annealed in the appropriate buffer by heating to 75 °C and slowly cooling to room temperature. Depsipeptide/peptide was added to the annealed RNA and incubated at 4 °C for 20 min prior to carrying out the analysis. For analyses involving dry-down reaction mixtures, the Tm was determined by monitoring fluorescence increase upon melting of a fluorophore/quencher-labeled RNA duplex (5′-rCrGrArUrUrUrArGrCrG-/3IABkFQ/-3′ and 3′-rGrCrUrArArArUrCrGrC-FAM-5′) using a BioRad CFX Connect rtPCR instrument with a heating ramp of 1 °C/min and 20 μL final sample volumes. For analyses involving pure, synthetic compounds, the Tm of the RNA was determined by monitoring UV hyperchromicity at 260 nm using a Varian Cary Bio-100 spectrophotometer, with a heating ramp of 1 °C/min and 0.5- or 1-cm pathlength cells. The following RNA sequences were used: RNA duplex 1 = 5′-rCrGrCrUrArArArUrCrG-3′ and 5′-rCrGrArUrUrUrArGrCrG-3′; RNA duplex 2 = 5′-rArArArArUrUrUrArUrArUrUrArUrUrA-3′ and 5′-rUrArArUrArArUrArUrArArArUrUrUrU-3′; RNA duplex 3 = 5′-rArArCrGrUrArUrArCrGrUrU-3′ (palindromic); and H26a RNA = 5′-rArUrGrArGrUrArArCrCrGrUrArArGrGrUrGrArArArUrU-3′. RNA was present in each assay at a final concentration of 2.5 μM of the folded structure (2.5 μM each strand for duplex 1 and duplex 2, 5.0 μM palindromic strand for duplex 3, 2.5 μM strand for H26a RNA). Tm values were determined by nonlinear fitting of the melting curves using GraphPad Prism 8.2.1 for duplex 1 and H26a, or by finding the maximum of the first derivative of the curve using the Varian Cary Bio-100 software for duplex 2 and duplex 3. Both methods of determining the Tm gave similar values for a given denaturation curve."}, "[5]": {"tested_on": "RNA duplex 2 (5′-rArArArArUrUrUrArUrArUrUrArUrUrA-3′ and 5′-rUrArArUrArArUrArUrArArArUrUrUrU-3′)", "test": "RNA thermal denaturation (Tm) by UV hyperchromicity, RNA duplex 2", "format": "binding", "method": "as §1"}, "[6]": {"tested_on": "RNA duplex 3 (5′-rArArCrGrUrArUrArCrGrUrU-3′, palindromic)", "test": "RNA thermal denaturation (Tm) by UV hyperchromicity, RNA duplex 3", "format": "binding", "method": "as §1"}, "[7]": {"tested_on": "RNA duplex 1", "test": "CD analysis of RNA duplex with peptides/depsipeptides", "format": "binding", "text": "The gel was cropped at the edges for clarity. […] […] Red and blue colors of the filled circles correspond to curves of the same color in panel (c). […] […] Scans were from 320 nm to 220 nm with a bandwidth of 5 nm, data pitch of 0.2 nm, and scan rate of 50 nm/min with three accumulations. […] Data were collected in independent triplicates and the data were averaged. Finally, data were smoothed and plotted using Matlab."}, "[8]": {"tested_on": "RNA duplex 1 (5′-rCrGrCrUrArArArUrCrG-3′ & 5′-rCrGrArUrUrUrArGrCrG-3′)", "test": "RNA thermal denaturation (Tm) by UV hyperchromicity at 260 nm with synthetic peptides/depsipeptides, RNA duplex 1", "format": "binding", "conditions": "100 mM NaCl", "method": "Each sample contained RNA duplex 1 (5′-rCrGrCrUrArArArUrCrG-3′ and 5′-rCrGrArUrUrUrArGrCrG-3′, 2.5 μM strand) and peptide/depsipeptide (100 μM) in buffered solution (10 mM phosphate, 100 mM NaCl, pH 7.0 or 10 mM acetate, 100 mM NaCl, pH 5.0). a Structures of depsipeptides used to systematically characterize cationic side chain effects on RNA duplex stability. Lactic acid residues are highlighted. Ac acetyl, Aba acetamidobenzoic acid, which was appended to the N-terminus to increase UV absorbance. b Structures of the Fmoc-didepsipeptide building blocks used for solid-phase synthesis of depsipeptide sequences. Fmoc fluorenylmethoxycarbonyl. c Comparative effects of oligo-didepsipeptide sequences 2–6 and analogous oligo-dipeptide and on the Tm of the RNA duplex (number of independent measurements: n = 3 for Arg and Lys sequences; n = 2 for His and Dab sequences; n = 4 for Orn sequences). The shaded areas correspond to the mean ± SD Tm measured for the RNA duplex alone (n = 16 independent measurements). Data are shown as a scatter plot with mean ± SD. d Comparative effects on RNA duplex Tm of depsipeptide sequences containing a single backbone ester (number of independent measurements: n = 3 for Arg; n = 2 for His, Orn, and Dab; n = 4 for Lys), relative to RNA duplex alone (n = 16 independent measurements). Data are shown as a scatter plot with mean ± SD. e To assess the impact of different cationic side chains on depsipeptide degradation rates, depsipeptides 7–11 (40 μM) were incubated at 37 °C in buffer (100 mM HEPES, 10 mM NaCl, pH 7.3). After 5 min, the reactions were quenched by the addition of 3% TFA, and samples were analyzed by HPLC.\nas §1, with “3.” for “3. Both methods of determining the Tm gave similar values for a given denaturation curve.”"}, "[9]": {"conditions": "cited from earlier work", "text": "Several lines of evidence support the importance of electrostatic interactions in the observed stabilizations of RNA duplexes. First, as would be expected, higher numbers of cationic residues present in the depsipeptide/peptide led to greater increases in RNA duplex Tm (Table 1, entries #1–7). Second, the effect of His-containing depsipeptides was pH-dependent (Figs. 2d and 3c, d), as expected based on the His pKa of ~6.0. […] The ineffectiveness of this sequence is probably due to the l ..."}}, "note": "Non-standard residues stand in square brackets, D forms with d. Residues, ends and D or L forms follow the SMILES beside them. *: point of attachment. 5FAM = O=C1OC2(c3ccc(O)cc3Oc3cc(O)ccc32)c2ccc(C(=O)*)cc21; Dab = NCC[C@H](N)C(=O)O; Lac = C[C@H](O)C(=O)O"}
{"smiles": "C[C@H](NC(=O)CNC(=O)c1ccc2c(c1)C(=O)OC21c2ccc(O)cc2Oc2cc(O)ccc21)C(=O)N[C@@H](CCN)C(=O)N[C@@H](CCCCN)C(=O)N[C@@H](C)C(=O)N[C@@H](CCN)C(=O)N[C@@H](CCCCN)C(=O)N[C@@H](C)C(=O)N[C@@H](CCN)C(=O)N[C@@H](CCCCN)C(=O)O[C@@H](C)C(=O)N[C@@H](CCN)C(=O)N[C@@H](CCCCN)C(=O)N[C@@H](C)C(=O)N[C@@H](CCN)C(=O)N[C@@H](CCCCN)C(N)=O", "note": "[compound 13, 5-FAM-Gly-Ala-Dab-Lys-Ala-Dab-Lys-Ala-Dab-Lys-lac-Dab-Lys-Ala-Dab-Lys NH2] (5FAM-GA[Dab]KA[Dab]KA[Dab]K[Lac][Dab]KA[Dab]K-NH2)", "values": [{"measurement": "band shift of RNA in gel mobility shift assay", "setting": "[1]", "result": "concentration-dependent band shift"}, {"measurement": "RNA duplex 1 Tm", "setting": "[2]; observed Tm, peptide/depsipeptide 80 mM (so in the source), pH 7.0, mean ± SD", "result": "56.0 ± 0.8", "unit": "°C"}, {"measurement": "RNA duplex 1 ΔTm", "setting": "[2]; peptide/depsipeptide 80 μM, pH 7.0, 10 mM phosphate, 100 mM NaCl", "result": 12.2, "unit": "°C"}]}
{"smiles": "NCCC(O)C(=O)O", "note": "(centres unmarked) [hab, 2-hydroxy-4-aminobutyric acid]", "values": [{"measurement": "effect on RNA duplex Tm, non-dried controls", "setting": "[3]", "result": "no effect on the Tm"}]}
{"smiles": "CC(=O)N[C@@H](Cc1ccc(O)cc1)C(=O)NCC(=O)N[C@@H](C)C(=O)N[C@@H](CCN)C(=O)N[C@@H](CCCCN)C(=O)O[C@@H](C)C(=O)N[C@@H](CCN)C(=O)N[C@@H](CCCCN)C(=O)O[C@@H](C)C(=O)N[C@@H](CCN)C(=O)N[C@@H](CCCCN)C(=O)O[C@@H](C)C(=O)N[C@@H](CCN)C(=O)N[C@@H](CCCCN)C(N)=O", "note": "[compound 14, Ac-Tyr-Gly-Ala-Dab-Lys-lac-Dab-Lys-lac-Dab-Lys-lac-Dab-Lys-NH2] (Ac-YGA[Dab]K[Lac][Dab]K[Lac][Dab]K[Lac][Dab]K-NH2)", "values": [{"measurement": "H26a RNA Tm", "setting": "[4]; observed Tm with peptide/depsipeptide 100 µM, pH 7.0, RNA alone 53.4 ± 0.5, mean ± SD of 2-4 independent experiments", "result": "63.8 ± 0.6", "unit": "°C"}, {"measurement": "H26a RNA ΔTm", "setting": "[4]; peptide/depsipeptide 100 μM, RNA 2.5 μM strand, pH 7.0, 10 mM phosphate, 100 mM NaCl, mean of 2–4 replicates", "result": 10.4, "unit": "°C"}, {"measurement": "RNA duplex 2 Tm", "setting": "[5]; observed Tm with peptide/depsipeptide 100 µM, pH 7.0, RNA alone 33.7 ± 0.7, mean ± SD of 2-4 independent experiments", "result": "42.8 ± 0.6", "unit": "°C"}, {"measurement": "RNA duplex 2 ΔTm", "setting": "[5]; peptide/depsipeptide 100 μM, RNA 2.5 μM each strand, pH 7.0, 10 mM phosphate, 100 mM NaCl, mean of 2–4 replicates", "result": 9.1, "unit": "°C"}, {"measurement": "RNA duplex 3 Tm", "setting": "[6]; observed Tm with peptide/depsipeptide 100 µM, pH 7.0, RNA alone 48.6 ± 0.7, mean ± SD of 2-4 independent experiments", "result": "58.6 ± 0.7", "unit": "°C"}, {"measurement": "RNA duplex 3 ΔTm", "setting": "[6]; peptide/depsipeptide 100 μM, 5.0 μM palindromic strand, pH 7.0, 10 mM phosphate, 100 mM NaCl, mean of 2–4 replicates", "result": 10.0, "unit": "°C"}, {"measurement": "changes in CD spectra of the RNA duplex upon addition", "setting": "[7]; RNA duplex 5 µM, peptide/depsipeptide 0–10 µM, MES-TEA buffer (60 mM)", "result": "changes were observed in the CD spectra"}, {"measurement": "Kd", "setting": "[7]; change in CD signal at 266 nm, one-site binding model, RNA duplex 1 5 μM each strand, depsipeptide 0–10 μM, MES-TEA buffer pH 6, 5 °C, independent triplicates averaged, read-out: apparent Kd", "result": "~3000", "unit": "nM"}, {"measurement": "RNA duplex 1 Tm", "setting": "[8]; observed Tm with peptide/depsipeptide 100 µM, pH 7.0, 10 mM phosphate, RNA alone 43.8 ± 0.4, mean ± SD of 2-4 independent experiments", "result": "52.4 ± 1.5", "unit": "°C"}, {"measurement": "RNA duplex 1 ΔTm", "setting": "[8]; peptide/depsipeptide 100 μM, RNA 2.5 μM each strand, 10 mM phosphate, pH 7.0, vs RNA alone at matched pH, mean of 2–4 replicates", "result": 8.6, "unit": "°C"}]}
{"smiles": "NCCCCC(O)C(=O)O", "note": "(centres unmarked) [hah, 2-hydroxy-6-aminohexanoic acid]", "values": [{"measurement": "effect on RNA duplex Tm, non-dried controls", "setting": "[3]", "result": "no effect on the Tm"}]}
{"smiles": "NCC(N)C(=O)O", "note": "(centres unmarked) [Dpr, 2,3-diaminopropionic acid]", "values": [{"measurement": "pKa of side chain β-amine", "setting": "[9]; when incorporated into oligomeric sequences", "result": "~ 6.3"}]}
{"smiles": "N[C@@H](Cc1c[nH]cn1)C(=O)O", "note": "[His, histidine]", "values": [{"measurement": "pKa", "setting": "[9]; His side chain, no reference given", "result": "~ 6.0"}]}
